In patent US7081568B2, “Transgenic plants expressing temporin peptides” (University of Victoria Innovation and Development …, priority 1999, dated 2006):
Where no end group is shown, it is not given here.

Experiments:
Escherichia coli = assay: Bactericidal effect of antimicrobial peptides in microtiter plates, colony count; assay type: cell-based; settings: approximately 1×10^5 bacteria/ml, 4 hours at room temperature, plated on LB, FIG. 2
Protocol: The cell cultures were incubated at room temperature in the presence of indicated concentration of Dermaseptin B (DSB; 7 μg/ml, 30 μg/ml, and 75 μg/ml), Temporin A (TA; 75 μg/ml, 133 μg/ml, 200 μg/ml) and a combination of Temporin A and Dermaseptin B (133 μg/ml Temporin A and 30 μg/ml Dermaseptin B) for 4 hours, diluted and plated on LB plates. After overnight incubation at 37° C., the colonies were counted and the survival of bacteria was scored.
(§1) Bactericidal effects of antimicrobial peptides (SEQ ID NO: 34 (MRSA3) and SEQ ID NO: 28 (MRSA2)) were determined against Escherichia coli (FIG. 2) and Erwinia carolovora (FIG. 3) in microtiter plates in a final volume of 220 μl containing approximately 1×10^5 bacteria/ml and indicated concentration of antimicrobial peptides. The cell cultures were incubated at room temperature for 4 hours, diluted and plated on LB plates. After overnight incubation at 37° C. (E. coli) or 28° C. (E. carotovora) the colonies were counted and the survival of bacteria was scored.

Erwinia carotovora = assay: as above; assay type: cell-based; settings: approximately 1×10^5 bacteria/ml, 4 hours at room temperature, plated on LB, FIG. 3
Protocol: The cell cultures were incubated at room temperature in the presence of indicated concentration of Dermaseptin B (DSB; 23 μg/ml, 45 μg/ml) or Temporin A (TA; 67 μg/ml, 133 μg/ml) for 4 hours, diluted and plated on LB plates. After overnight incubation at 28° C., the colonies were counted and the survival of bacteria was scored.
as §1

Row | Substance | bactericidal effect, survival of bacteria (Escherichia coli) | bactericidal effect, survival of bacteria (Erwinia carotovora)
1 | MRSA2: mature 27 amino acid form of dermaseptin b with a 5 amino acid N-terminal extension MAMWK; called Dermaseptin B in figure legends (MAMWKDVLKKIGTVALHAGKAALGAVADTISQ; ends and bridges not checked) | significant antimicrobial activity | significant antimicrobial activity
2 | MRSA3: mature 13 amino acid form of temporin A with a 6 amino acid N-terminal extension MASRHM; called Temporin A in figure legends (MASRHMFLPLIGRVLSGIL; ends and bridges not checked; listed as Rana temporaria) | significant antimicrobial activity | significant antimicrobial activity
